Experimental data reported in a melting point compilation (Tetko et al.; mined from patent text by program, amines drawn as free bases though some values may be those of a salt).
Residues, ends and D or L forms follow the SMILES beside them. *: point of attachment. Propionyl = CCC(=O)*; NHPh = c1ccc(N*)cc1

| Compound | melting point [°C] |
| --- | --- |
| O=C(Nc1cccnc1NCc1ccc(Cl)cc1)c1ccccc1[N+](=O)[O-] | 145 to 147 |
| N#CCc1nc(N)nc(N)c1-c1ccc(Cl)cc1Cl | 249 to 251 |
| Nc1ccccc1Oc1ccccc1C(=O)O | 150 to 151 |
| Cc1c(OCC(F)(F)F)ccnc1CSc1nc2cc(N3CCCCC3)c(F)cc2[nH]1 | 160 to 161 |
| COc1cc2cc(C(N)=O)c(N)nc2cc1OC | 275 |
| Cc1nc(NC(=O)c2cnn3c(C(F)F)cc(-c4ccc(C(F)(F)F)cc4)nc23)sc1S(=O)(=O)N(CCO)CCO | 191 |
| Cc1oc2c(C)cc(C=O)cc2c1C | 57 to 58 |
| CCc1[nH]n(C2CCCC2)c2nc(S(C)(=O)=O)nc(=O)c1-2 | > 300 |
| CCCCCCCCCCCCCCCCCCOCC(CO)NC(C)=O (configuration not stated) | 82 to 85 |
| Nc1noc2cc3c(cc12)C1(CO3)C(=O)N(Cc2ccccn2)c2ccccc21 (configuration not stated) | 190 to 192 |
| CC1CCc2cc(C(O)C(C)N3CCC(n4c(=O)[nH]c5ccccc54)CC3)ccc2S1 (configuration not stated) | 237 to 239 |
| CC(C)(C)NC(=O)N1C(=O)[C@H](O)[C@@H]1c1ccccc1 | 148 to 151 |
| C=CCN(CC)c1nc(N2CCc3ccccc3CC2)c(C#N)c(=O)n1CC=C | 138 to 140 |
| COC(=O)c1cccc(CN2C(=O)C(CCO)Oc3ccccc32)c1 (configuration not stated) | 73 to 75 |
| Cc1[nH]c2ccc(CCN(C)C3CCCCC3)cc2c1C(=O)OCc1ccccc1 | 122 to 124 |
| COC(=O)C(CCn1c(Cl)ccc1C(=O)c1ccc(Cl)cc1)C(=O)OC | 72.5 to 73.5 |
| NCCCN1CCC(c2c[nH]c3cc(F)ccc23)CC1 | 102 |
| CCCCC1(COC(=O)C(C)(C)C)C(=O)N(c2ccccc2)N(c2ccccc2)C1=O | 116 to 117 |
| CC(c1ccc(C#N)nc1)C(O)(Cn1cncn1)c1ccc(F)cc1F (configuration not stated) | 136 to 141 |
| CCCC(O)c1cc(-c2ccc(C(F)(F)F)n(C)c2=O)c(F)cc1Cl (configuration not stated) | 120 to 122 |
| O=c1c2cc(Br)ccc2c2cc3c(=O)c4cc(Br)ccc4c3cc12 | > 300 |
| N/C(=C1\C(=O)c2cc(Cl)ccc2S1=O)c1ccccc1Cl (configuration not stated) | 248 |
| O=C(O)[C@H]1C[C@H](NC(=S)Nc2ccccc2)c2c(Cl)cc(Cl)cc2N1 (relative stereo) | 186 to 187 |
| CCC(=O)N[C@@H](C)C(=O)N1CCC[C@H]1C(=O)Nc1ccccc1 (Propionyl-Ala-Pro-NHPh) | 156 to 157 |

| Compound | melting point [°C] |
| --- | --- |
| CC(C)(C)OC(=O)NC(C)(C)c1ccc(-c2nc(Nc3cccc(CCO)c3)ncc2C#N)cc1 | 164 |
| c1ccc(-c2ccc3[nH]nc(Nc4nccs4)c3c2)nc1 | 234 to 236 |
| COc1ccc2c(c1)C(=O)[C@@H](O)[C@](C#Cc1ccccc1)(c1ccccc1)O2 (relative stereo) | 135 to 138 |
| COc1cc(C=O)ccc1C1OC(CO)C(O)C(O)C1O (configuration not stated) | 188 to 190 |
| CC(=O)CCC(CC=O)C(C)(C)OC(C)=O (configuration not stated) | 24 |
| COc1ccc(S(=O)(=O)C(c2cc(F)ccc2F)c2cc(N)ncc2Cl)cc1 (configuration not stated) | 153 to 155 |
| COc1ccccc1C(=O)COc1cccc(NC(=O)c2ccccn2)c1 | 136 to 137 |
| O=C(c1ccc2ccccc2c1)N1CC[C@H](NCc2ccnc3ccccc23)C[C@H]1Cc1ccccc1 (relative stereo) | 111 to 112 |
| CCCC(=O)OCC(=O)c1ccc(-c2ccccc2)cc1 | 82 |
| OC/C=C(\c1ccccc1)c1ccc(C#Cc2ccccc2)cc1 | 115 to 117 |
| COCc1c(C(=O)OC(C)C)ncc2c1c1c(OCc3ccccc3)cccc1n2CC(=O)N(C)Cc1ccccc1 | 155 to 157 |
| O=C(O)CCCN(C(=O)c1cccc(C(F)(F)F)c1)c1ccccc1-c1ccccc1 | 156 to 157 |
| CC(C)(NC(=O)CCSC(=O)c1ccccc1)C(=O)O | 142 to 143 |
| O=S(=O)(NC[C@@H](CO)NC(c1ccccc1)(c1ccccc1)c1ccccc1)c1ccc(Oc2ccccc2)cc1 | 67 to 70 |
| O=Cc1cnc(-c2ccc(F)cc2)nc1 | 168 |
| COC(=O)c1ncc(OCc2ccccn2)nc1NCc1ccc(OC)c(Cl)c1 | 132 to 133 |
| CCOC(=O)N1Cc2ccccc2C(Oc2ccc([N+](=O)[O-])cc2)C1 (configuration not stated) | 118 to 119 |
| CC(=O)c1ccc(CCNS(=O)(=O)c2ccc(F)cc2)cc1 | 106 to 107 |
| O=C(OCCN1CCCCC1)c1c[nH]c2ccccc12 | 123 to 125 |
| O=C(c1cccc(Cl)c1)c1ccnc2ccccc12 | 92.7 |
| CC(C#Cc1cc2ccccc2s1)N(O)C(N)=O (configuration not stated) | 168 to 169 |
| CCN(Cc1ccccc1Oc1ccccc1)c1ccc(C(=O)O)nn1 | 70 to 75 |
| O=C(C1CC1)N1CCCCc2cc(C(O)(C(F)(F)F)C(F)(F)F)ccc21 | 165 to 167 |
| ClCCOc1ccc(Br)cc1 | 54 to 56 |

| Compound | melting point [°C] |
| --- | --- |
| COC(=O)CN1CSC=C(N2C(=O)c3ccccc3C2=O)C1=O | 181 to 183 |
| Cc1c(C)c(C=O)c2c(c1C)CCO2 | 90 |
| CC(C)Sc1c(C(N)=O)n(C)c2ccc(O)cc12 | 60 to 62 |
| O=C1CN(C(=O)N2CCOCC2)c2ccccc2N1 | 180 |
| COc1cc(C(=O)c2c(C)c(C(=O)OCc3ccccc3)c3cc(NC(=O)OC(C)(C)C)ccn23)ccc1[N+](=O)[O-] | 95 |
| Cc1cc(CCCCCOc2c(Cl)cc(-c3noc(C(F)(F)F)n3)cc2Cl)on1 | 42 to 43 |
| O=[N+]([O-])c1nccn1C1OC(CO)C(O)C1O (configuration not stated) | 160 |
| COc1ccc(C(C#N)=NO)cc1 | 141 |
| CC(=O)Nc1ccc(Sc2ccc(Br)cc2)cc1 | 153 to 155 |
| CCOC(=O)c1cn(Cc2ccc(Oc3ccccc3)cc2)nc1OCc1ccc(OCc2nc(-c3ccccc3)oc2C)c(OC)c1 | 127 to 128 |
| COC(=O)c1cc2ccc(C(=O)NCCc3ccccn3)cc2[nH]1 | 191 to 193 |
| OCC1=CCOc2ccc(Cl)cc21 | 85 to 88 |
| N#Cc1cc(C(=O)O)n(/C=C/c2ccccc2)c1 | 166 to 168 |
| COc1ccc(-c2ncccc2O)cc1OC | 150 to 155 |
| CC12CCC3c4ccc(C(=O)O)cc4CCC3C1CCC2C(=O)CCC1CCCCC1 (configuration not stated) | 250 to 253 |
| CNC(=O)C(=O)CCCCCCSc1nc(-c2ccccc2)cs1 | 107 to 108 |
| CN(C)C(=O)c1cccnc1SCc1ccccc1 | 61 to 63 |
| Cc1c(OCC2=NCCN2)ccc(Br)c1NS(C)(=O)=O | 272 |
| NC1CCn2c(CCc3ccccc3)nc3cccc1c32 (configuration not stated) | 43.6 to 45.6 |
| Cc1cc(Br)cnc1CCCCNc1ncc(Cc2ccc(F)cc2)c(=O)[nH]1 | 172 to 173 |
| O=c1nc(-c2ccc(N3CCCC3)nc2)sc2ccccc12 | 221 to 223 |
| N#Cc1c(-c2cccc(N)c2)cc(-c2ccccc2O)nc1NC(=O)C1CCCCC1 | 236 to 238 |
| Oc1cccc2c1C(n1ccnc1)=CCC2 | 186 |
| CC(C)(C)OC(=O)c1ccc(C=Cc2ccc(C(=O)OC(C)(C)C)cc2)cc1 | 126 to 127 |
